# Experimental data reported in US8501166B2, “Pyrimidinyl indole compounds” (Hutchison Medipharma Limited, priority 2010, dated 2013).
# Where a name gives a salt, the structure may show the parent alone. Read-outs that look alike come from different tables or passages of the source.
# What was measured:
# BxPC-3 cells = test: Cell viability test, combination study, BxPC-3; type: cell-based, human; conditions: for inhibition at 2.5 µM / inhibition at 25 µM: Homo sapiens, BXPC-3, 72 h, read-out: Ave. Inhibition rate
# Description: To evaluate biological activity of a compound in vitro, the cell viability test is applied, in which, IKKβ receptor plays an important role in cell survival and proliferation. Once the IKKβ pathway is blocked by inhibitors, a cell can go through apoptosis or death. The cell viability test provides information on cell survival after treatment with IKK inhibitors.
# BxPC-3 cells (ATCC #CRL-1687; human pancreatic cancer cell line) are grown in Roswell Park Memorial Institute (RPMI) 1640 media (Gibco #A10491-01) supplemented with 10% fetal bovine serum (FBS) (Gibco #10099-141). Skov3-luc cells (ATCC, human ovarian carcinoma cell line) are grown in McCoy's 5a medium (Gibco#16600) supplemented with 10% FBS (Gibco#10099-141). For compound testing, BxPc-3 and Skov3-Luc cells are seeded at 2000 and 5000 cells/well respectively in 100 μL of corresponding media specified above for each cell line in 96-well plates 20 h prior to treatment. Cells are treated with a test compound at eight different concentrations in the presence of 0.5% DMSO for 72 h. Cell death in each well is determined by the addition of 20 μL of the One Solution Reagent (CELLTITER 96® AQueous One Solution Cell Proliferation Assay, Promega #G3580). After 2-4 h of incubation at 37° C., optical densities at 492 nm are measured with a microplate reader Inhibition of cell viability is determined by comparison to the control cells treated in the absence of a test compound.
# For the combination study of the compound with other antitumor agents, BxPc-3 and Skov3-Luc cells are seeded at 2000 and 5000 cells/well respectively in 100 μL corresponding media specified above for each cell line in 96-well plates 20 h prior to the treatment. The cells are treated with the test compound at a number of concentrations for 30 minutes and then exposed to 5 ng/mL TNFα or 0.15-0.6 uM of VCR (vincristine sulfate) for an additional 72 hours. Cell death in each well is determined by the addition of 20 μL of the One Solution Reagent (CELLTITER 96® AQueous One Solution Cell Proliferation Assay, Promega #G3580). After 2-4 h of incubation at 37° C., optical densities at 492 nm are measured with a microplate reader Inhibition of cell viability is determined by comparison to the control cells treated in the absence of a test compound. For example, the results of the combination study with Example 1 are specially detailed in Table 2.
# [1] = system: SKOV-3x-FF-luci human ovarian cancer xenograft; test: Antitumor effect in SKOV-3x-FF-luci xenograft with vincristine (VCR); type: in vivo, Balb/c nu/nu mice
# Description: In order to expand the anti-tumor spectrum, more combination testing is explored. Based on in vitro synergistic effect of Example 1 and VCR, the compound is tested for its anti-tumor effects in SKOV-3x-FF-luci xenograft in the presence/absence of VCR. The SKOV-3x-FF-luci human ovarian cancer line (ATCC) is cultured in McCoy's 5a medium containing 10% FCS. Female Balb/c nu/nu mice (6-7 weeks old) are peritoneally injected with 0.2 mL of cell suspension containing 2×10^6 cells. Mice are divided into nine groups six days after cell implantation. The test compound is orally administered twice a day at 60 mg/kg for 20 consecutive days or at 90 mg/kg with a 2 days on and 5 days off dosing schedule. VCR at 1 or 0.3 mg/kg is administered via tail vein injection, once a week. In the combination group, VCR is given 1 h after the administration of the test compound. Mice from the control group are administered with the oral vehicle (10% Acacia at pH2.1) and intraperitoneally injected with saline. At the end of the treatment, all mice are euthanized with CO2 and tumors in the peritoneal cavity, diaphragmatic muscle, mesenterium, liver, spleen, and ovaries are harvested with surgery scissors and weighted. […] In the combination group, tumor growth is inhibited by 76% and 74%. Compared with monotherapy, statistical significance is found between combination and monotherapy.
# [2] = system: OVA-induced airway inflammation; test: Ovalbumin (OVA)-induced pulmonary inflammation in mice; type: in vivo, Balb/c mice
# Description: A compound of the present invention is tested in an OVA-induced pulmonary inflammation model in mice essentially as described in a method reported in the literature (Muriel Pichavant, Sho Goya, Eckard Hamelmann, Erwin W. Gelfand, and Dale T. Umetsu. Animal Models of Airway Sensitization. Current Protocols in Immunology. (1999) 15.18.1-15.18.13). Briefly, female Balb/c mice weighing from 18 to 20 g are sensitized by introperitoneal injection of 100 μL of saline containing 20 μg of OVA and 2 mg of aluminum hydroxide on day 1 and 14. On days 28, 29 and 30, mice are challenged once each by aerosolizing 1% ovalbumin (OVA) in phosphate buffered saline (PBS) for 20 minutes with Buxco Mass Dosing System. […] On day 32, animals from each group are anesthetized with 1% of pentobarbital sodium. The thoracic and abdominal cavities are opened and plasma is collected from centrifuged specimens. The trachea is then dissected and transected. Through the insertion of an 18-gauge catheter into the trachea, the lungs are lavaged with a total of 1.5 mL of sterile PBS and then placed into a specimen container. Cell-free BAL supernatants are obtained by centrifugation of BAL fluids. All serum and BAL supernatants are stored at −80° C. until use. Differential cell counts are performed on cytospin preparations of BAL cells for cell counting and cytokine determination. After the collection of BAL supernatants, the lungs of recipient mice are removed en bloc and fixed by an intratracheal instillation of 10% buffered formalin (in PBS). Three to six paraffin sections are obtained from the perihilar regions of recipient lungs, stained with hematoxylin and eosin, and examined under light microscopy for pathological study.
# PLP-139-151 induced EAE = test: Mouse experimental autoimmune encephalomyelitis (EAE) model; type: in vivo, SJL/J mice
Compound,"Ave. Inhibition rate (BxPC-3 cells; Example 1 25 μM alone, 72 h, hydrochloride) [%]",inhibition at 2.5 µM (BxPC-3 cells; Example 1 2.5 μM alone) [%],inhibition at 25 µM (BxPC-3 cells; Example 1 25 μM alone) [%],inhibition at 2.5 µM (BxPC-3 cells; TNFα 5 ng/mL + Example 1 2.5 μM) [%],inhibition at 25 µM (BxPC-3 cells; Vincristine 0.15 μM + Example 1 25 μM) [%],"tumor growth inhibition ([1]; Example 1 alone 60 mg/kg oral twice a day, 20 days) [%]","tumor growth inhibition ([1]; Example 1 alone 90 mg/kg, 2 days on and 5 days off) [%]",tumor growth inhibition ([1]; combination group: Example 1 60 mg/kg + VCR) [%],tumor growth inhibition ([1]; combination group: Example 1 90 mg/kg + VCR) [%],decrease of eosinophil cell numbers ([2]; 1 mg/kg (bid)) [%],decrease of eosinophil cell numbers ([2]; 3 mg/kg (bid)) [%],"decrease of eosinophil cell numbers ([2]; 10 mg/kg (bid), p<0.05) [%]","reduction of IL-13 production ([2]; 10 mg/kg, p<0.05) [%]","decrease of eosinophil cell numbers ([2]; 30 mg/kg (bid), p<0.05) [%]","reduction of IL-13 production ([2]; 30 mg/kg, p<0.01) [%]","lung histology, hematoxylin and eosin stains ([2]; Example 2 at 1 to 30 mg/kg)",body weight loss (PLP-139-151 induced EAE; 10 and 30 mg/kg),"ED50 (PLP-139-151 induced EAE; Mus musculus, 3, 10, and 30 mg/kg oral twice daily, read-out: ED50, EAE clinical score) [mg/kg]"
"O=C(NC1CC1)c1cccc2[nH]c(-c3nc(N[C@@H]4CCC[C@@H]4O)ncc3Cl)cc12 [Example 1, 2-{5-Chloro-2-[(1R,2S)-2-hydroxycyclopentylamino]pyrimidin-4-yl}-N-cyclopropyl-1H-indole-4-carboxamide hydrochloride]",11.53,-16.5,11.5,87.8,80.2,42,36,76,74,–,–,–,–,–,–,–,–,–
"Cl.O=C(NC1CC1)c1cccc2[nH]c(-c3nc(N[C@@H]4CCC[C@H]4O)ncc3Cl)cc12 [Example 2, 2-{5-Chloro-2-[(1R,2R)-2-hydroxycyclopentylamino]pyrimidin-4-yl}-N-cyclopropyl-1H-indole-4-carboxamide hydrochloride]",–,–,–,–,–,–,–,–,–,58.6,49.3,94.1,73.0,90.2,85.1,improvement in pulmonary inflammation,improves,3.7
